Measured values reported in ChEMBL document CHEMBL1201861, “Genomics of Drug Sensitity in Cancer screening data, Wellcome Trust Sanger Institute”.

Tests used:
Assay in all cases: cells
Type in all cases: functional, cell-based, Homo sapiens
CAL-85-1 = details: Homo sapiens, CAL-85-1;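 also: growth inhibition of human CAL-85-1 cells, read out with a cell viability assay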
Description: SANGER: Inhibition of human CAL-85-1 cell growth in a cell viability assay.

NCI-H526 = details: Homo sapiens, NCI-H526;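 also: growth inhibition of the human NCI-H526 cell line, measured by a cell viability assay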
Description: SANGER: Inhibition of human NCI-H526 cell growth in a cell viability assay.

SCC-15 = details: Homo sapiens, SCC-15;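 also: growth inhibition of SCC-15 cells, read out with a cell viability assay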
Description: SANGER: Inhibition of human SCC-15 cell growth in a cell viability assay.

NCI-H1693 = details: Homo sapiens, NCI-H1693;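 also: growth inhibition of the human cell line, read out with a cell viability assay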
Description: SANGER: Inhibition of human NCI-H1693 cell growth in a cell viability assay.

D283 Med = details: Homo sapiens, D283 Med
Description: SANGER: Inhibition of human D-283MED cell growth in a cell viability assay.

LAN-6 = details: Homo sapiens, LAN-6;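 also: growth inhibition of LAN-6 cells, determined with a cell viability assay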
Description: SANGER: Inhibition of human LAN-6 cell growth in a cell viability assay.

BXPC-3 = details: Homo sapiens, BXPC-3;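 also: growth inhibition of human BxPC-3 cells, read out by a cell viability assay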
Description: SANGER: Inhibition of human BxPC-3 cell growth in a cell viability assay.

RPMI-8226 = details: Homo sapiens, RPMI-8226
Description: SANGER: Inhibition of human RPMI-8226 cell growth in a cell viability assay.

5637 = details: Homo sapiens
Description: SANGER: Inhibition of human 5637 cell growth in a cell viability assay.

NCI-H747 = details: Homo sapiens, NCI-H747;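 also: growth inhibition of human NCI-H747 cells, read out by a cell viability assay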
Description: SANGER: Inhibition of human NCI-H747 cell growth in a cell viability assay.

CAL-148 = details: Homo sapiens, CAL-148
Description: SANGER: Inhibition of human CAL-148 cell growth in a cell viability assay.

SUP-T1 = details: Homo sapiens, SUP-T1;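 also: growth inhibition of human SUP-T1 cells, read out as cell viability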
Description: SANGER: Inhibition of human SUP-T1 cell growth in a cell viability assay.

NCI-H748 = details: Homo sapiens, NCI-H748;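 also: growth inhibition of NCI-H748 cells, measured by a cell viability assay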
Description: SANGER: Inhibition of human NCI-H748 cell growth in a cell viability assay.

647-V = details: Homo sapiens, 647-V;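 also: growth inhibition of 647-V cells, read out with a cell viability assay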
Description: SANGER: Inhibition of human 647-V cell growth in a cell viability assay.

SN12C = details: Homo sapiens, SN12C;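 also: growth inhibition of human SN12C cells, measured by a cell viability assay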
Description: SANGER: Inhibition of human SN12C cell growth in a cell viability assay.

SW780 = details: Homo sapiens, SW780;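 also: growth inhibition of the cells, read out with a cell viability assay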
Description: SANGER: Inhibition of human SW780 cell growth in a cell viability assay.

NALM-6 = details: Homo sapiens, NALM-6;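 also: growth inhibition of NALM-6 cells, read out with a cell viability assay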
Description: SANGER: Inhibition of human NALM-6 cell growth in a cell viability assay.

TE-10 = details: Homo sapiens, TE-10;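 also: growth inhibition of TE-10 cells, measured by a cell viability assay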
Description: SANGER: Inhibition of human TE-10 cell growth in a cell viability assay.

NCI-H1882 = details: Homo sapiens, NCI-H1882;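 also: growth inhibition of the cell line, determined with a viability assay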
Description: SANGER: Inhibition of human NCI-H1882 cell growth in a cell viability assay.

HuP-T4 = details: Homo sapiens, HuP-T4;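 also: cell viability assay measuring how much HuP-T4 cell growth is inhibited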
Description: SANGER: Inhibition of human HuP-T4 cell growth in a cell viability assay.

ARH-77 = details: Homo sapiens, ARH-77;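 also: growth inhibition of ARH-77 cells, read out by a cell viability assay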
Description: SANGER: Inhibition of human ARH-77 cell growth in a cell viability assay.

MDA-MB-134-VI = details: Homo sapiens, MDA-MB-134-VI
Description: SANGER: Inhibition of human MDA-MB-134-VI cell growth in a cell viability assay.

NCI-H720 = details: Homo sapiens, NCI-H720;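 also: growth inhibition of human NCI-H720 cells determined by a cell viability assay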
Description: SANGER: Inhibition of human NCI-H720 cell growth in a cell viability assay.

GAMG = details: Homo sapiens, GAMG;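 also: cell growth inhibition measured by a viability assay in the GAMG human cell line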
Description: SANGER: Inhibition of human GAMG cell growth in a cell viability assay.

YAPC = details: Homo sapiens, YAPC;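 also: growth inhibition of YAPC cells, measured with a cell viability assay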
Description: SANGER: Inhibition of human YAPC cell growth in a cell viability assay.

DMS-114 = details: Homo sapiens, DMS-114
Daudi = details: Homo sapiens, Daudi;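 also: growth inhibition of Daudi cells, read out by a viability assay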
Description: SANGER: Inhibition of human Daudi cell growth in a cell viability assay.

TE-11 = details: Homo sapiens, TE-11;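 also: growth inhibition of human TE-11 cells, read out by a cell viability assay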
Description: SANGER: Inhibition of human TE-11 cell growth in a cell viability assay.

A498 = details: Homo sapiens, A498;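 also: growth inhibition of human A498 cells, read out with a cell viability assay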
Description: SANGER: Inhibition of human A498 cell growth in a cell viability assay.

23132-87 = details: Homo sapiens
Description: SANGER: Inhibition of human 23132-87 cell growth in a cell viability assay.

HC-1 = details: Homo sapiens, HC-1;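 also: growth inhibition of HC-1 cells measured by a cell viability assay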
Description: SANGER: Inhibition of human HC-1 cell growth in a cell viability assay.

S-117 = details: Homo sapiens, S-117
Description: SANGER: Inhibition of human S-117 cell growth in a cell viability assay.

NCI-H1755 = details: Homo sapiens, NCI-H1755;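 also: cell viability readout used to measure growth inhibition of NCI-H1755 cells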
Description: SANGER: Inhibition of human NCI-H1755 cell growth in a cell viability assay.

ES1 = details: Homo sapiens, ES1;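 also: growth inhibition of ES1 cells, read out with a cell viability assay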
Description: SANGER: Inhibition of human ES1 cell growth in a cell viability assay.

SK-PN-DW = details: Homo sapiens, SK-PN-DW;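 also: growth inhibition measured with a viability assay on these cells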
Description: SANGER: Inhibition of human SK-PN-DW cell growth in a cell viability assay.

IA-LM = details: Homo sapiens, IA-LM;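 also: cell viability assay measuring growth inhibition of human IA-LM cells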
Description: SANGER: Inhibition of human IA-LM cell growth in a cell viability assay.

TE-15 = details: Homo sapiens, TE-15;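 also: cell viability readout of growth inhibition in TE-15 cells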
Description: SANGER: Inhibition of human TE-15 cell growth in a cell viability assay.

NCI-H524 = details: Homo sapiens, NCI-H524;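 also: growth inhibition of human NCI-H524 cells, read out through a cell viability assay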
Description: SANGER: Inhibition of human NCI-H524 cell growth in a cell viability assay.

HT = details: Homo sapiens, HT
Description: SANGER: Inhibition of human HT cell growth in a cell viability assay.

NCI-H2122 = details: Homo sapiens, NCI-H2122;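 also: growth inhibition of the cells, read out with a cell viability assay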
Description: SANGER: Inhibition of human NCI-H2122 cell growth in a cell viability assay.

MDA-MB-361 = details: Homo sapiens, MDA-MB-361
U-698-M = details: Homo sapiens, U-698-M
Description: SANGER: Inhibition of human U-698-M cell growth in a cell viability assay.

MKN-7 = details: Homo sapiens, MKN-7;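 also: growth inhibition of MKN-7 cells, read out with a cell viability assay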
Description: SANGER: Inhibition of human MKN7 cell growth in a cell viability assay.

ABC-1 = details: Homo sapiens, ABC-1;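 also: growth inhibition of human ABC-1 cells, read out by a cell viability assay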
Description: SANGER: Inhibition of human ABC-1 cell growth in a cell viability assay.

SR = details: Homo sapiens, SR
Description: SANGER: Inhibition of human SR cell growth in a cell viability assay.

AN3-CA = details: Homo sapiens, AN3-CA;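 also: growth inhibition of human AN3-CA cells measured by a cell viability assay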
Description: SANGER: Inhibition of human AN3-CA cell growth in a cell viability assay.

D-247MG = details: Homo sapiens, D-247MG
Description: SANGER: Inhibition of human D-247MG cell growth in a cell viability assay.

`CCC/C=C/C=C/C(=O)O[C@H]1/C(=C/C(=O)OC)C[C@H]2C[C@H]([C@@H](C)O)OC(=O)C[C@H](O)C[C@@H]3C[C@H](OC(C)=O)C(C)(C)[C@](O)(C[C@@H]4C/C(=C/C(=O)OC)C[C@H](/C=C/C(C)(C)[C@]1(O)O2)O4)O3` [BRYOSTATIN 1] was tested, and the IC50 (CAL-85-1) was 0.00552 µM, the IC50 (NCI-H526) was > 0.008 µM and the IC50 (SCC-15) was > 0.008 µM. For the same compound, the IC50 (NCI-H1693) was > 0.008 µM, the IC50 (D283 Med) was > 0.008 µM and the IC50 (LAN-6) was > 0.008 µM. The IC50 (BXPC-3) was > 0.008 µM, the IC50 (RPMI-8226) was > 0.008 µM and the IC50 5637 was > 0.008 µM. The IC50 (NCI-H747) was > 0.008 µM, the IC50 (CAL-148) was > 0.008 µM and the IC50 (SUP-T1) was > 0.008 µM. The IC50 (NCI-H748) was > 0.008 µM, the IC50 (647-V) was > 0.008 µM and the IC50 (SN12C) was > 0.008 µM. For the same compound, the IC50 (SW780) was > 0.008 µM, the IC50 (NALM-6) was > 0.008 µM and the IC50 (TE-10) was > 0.008 µM. The IC50 (NCI-H1882) was > 0.008 µM, the IC50 (HuP-T4) was > 0.008 µM and the IC50 (ARH-77) was > 0.008 µM. For the same compound, the IC50 (MDA-MB-134-VI) was > 0.008 µM, the IC50 (NCI-H720) was > 0.008 µM and the IC50 (GAMG) was > 0.008 µM. For the same compound, the IC50 (YAPC) was > 0.008 µM, the IC50 (DMS-114) was > 0.008 µM and the IC50 (Daudi) was > 0.008 µM. For the same compound, the IC50 (TE-11) was > 0.008 µM, the IC50 (A498) was > 0.008 µM and the IC50 (23132-87) was > 0.008 µM. The IC50 (HC-1) was > 0.008 µM, the IC50 (S-117) was 0.00592 µM and the IC50 (NCI-H1755) was > 0.008 µM. For the same compound, the IC50 (ES1) was > 0.008 µM, the IC50 (SK-PN-DW) was > 0.008 µM and the IC50 (IA-LM) was > 0.008 µM. The IC50 (TE-15) was > 0.008 µM, the IC50 (NCI-H524) was > 0.008 µM and the IC50 (HT) was > 0.008 µM. For the same compound, the IC50 (NCI-H2122) was > 0.008 µM, the IC50 (MDA-MB-361) was > 0.008 µM and the IC50 (U-698-M) was > 0.008 µM. The IC50 (MKN-7) was > 0.008 µM, the IC50 (ABC-1) was > 0.008 µM and the IC50 (SR) was > 0.008 µM. The IC50 (AN3-CA) was > 0.008 µM.

For `Oc1ccc2ccccc2c1SSc1c(O)ccc2ccccc12`, the IC50 (CAL-85-1) was 7.37 µM, the IC50 (NCI-H526) was > 32 µM and the IC50 (SCC-15) was > 32 µM. The IC50 (NCI-H1693) was > 32 µM, the IC50 (D283 Med) was > 32 µM and the IC50 (LAN-6) was > 32 µM. The IC50 (BXPC-3) was > 32 µM, the IC50 (RPMI-8226) was > 32 µM and the IC50 5637 was > 32 µM. For the same compound, the IC50 (NCI-H747) was > 32 µM, the IC50 (CAL-148) was > 32 µM and the IC50 (SUP-T1) was > 32 µM. The IC50 (NCI-H748) was > 32 µM, the IC50 (647-V) was > 32 µM and the IC50 (SN12C) was > 32 µM. The IC50 (SW780) was > 32 µM, the IC50 (NALM-6) was 0.977 µM and the IC50 (TE-10) was > 32 µM. The IC50 (NCI-H1882) was > 32 µM, the IC50 (HuP-T4) was > 32 µM and the IC50 (ARH-77) was > 32 µM. The IC50 (MDA-MB-134-VI) was > 32 µM, the IC50 (NCI-H720) was > 32 µM and the IC50 (GAMG) was > 32 µM. For the same compound, the IC50 (YAPC) was > 32 µM, the IC50 (DMS-114) was > 32 µM and the IC50 (Daudi) was 5.68 µM. The IC50 (TE-11) was > 32 µM, the IC50 (A498) was > 32 µM and the IC50 (23132-87) was > 32 µM. For the same compound, the IC50 (HC-1) was 8.07 µM, the IC50 (S-117) was 31.4 µM and the IC50 (NCI-H1755) was > 32 µM. For the same compound, the IC50 (ES1) was > 32 µM, the IC50 (SK-PN-DW) was 27.9 µM and the IC50 (IA-LM) was > 32 µM. The IC50 (TE-15) was > 32 µM, the IC50 (NCI-H524) was > 32 µM and the IC50 (HT) was > 32 µM. For the same compound, the IC50 (NCI-H2122) was > 32 µM, the IC50 (MDA-MB-361) was > 32 µM and the IC50 (U-698-M) was 3.24 µM. The IC50 (MKN-7) was > 32 µM, the IC50 (ABC-1) was > 32 µM and the IC50 (SR) was 5.37 µM. The IC50 (AN3-CA) was 14.3 µM.

With `COc1cc2ncn(-c3cc(OCc4ccccc4C(F)(F)F)c(C(N)=O)s3)c2cc1OC` [GW843682X] the IC50 (NCI-H526) was 0.0883 µM, the IC50 (SCC-15) was > 0.256 µM and the IC50 (D283 Med) was > 0.256 µM. The IC50 (LAN-6) was 0.139 µM, the IC50 (RPMI-8226) was 0.0281 µM and the IC50 (NCI-H747) was 0.0767 µM. The IC50 (CAL-148) was 0.0907 µM, the IC50 (SUP-T1) was > 0.256 µM and the IC50 (NCI-H748) was > 0.256 µM. The IC50 (NALM-6) was 0.0245 µM, the IC50 (TE-10) was 0.0126 µM and the IC50 (NCI-H1882) was 0.0437 µM. For the same compound, the IC50 (ARH-77) was 0.0581 µM, the IC50 (MDA-MB-134-VI) was > 0.256 µM and the IC50 (NCI-H720) was > 0.256 µM. The IC50 (DMS-114) was 0.122 µM, the IC50 (Daudi) was 0.0347 µM and the IC50 (D-247MG) was > 0.256 µM. For the same compound, the IC50 (TE-11) was 0.0107 µM, the IC50 (A498) was > 0.256 µM and the IC50 (HC-1) was 0.0262 µM. The IC50 (ES1) was 0.025 µM, the IC50 (SK-PN-DW) was 0.0387 µM and the IC50 (IA-LM) was 0.0112 µM. It also gave an IC50 (TE-15) of 0.0108 µM, an IC50 (NCI-H524) of 0.0654 µM and an IC50 (HT) of 0.128 µM. For the same compound, the IC50 (U-698-M) was > 0.256 µM and the IC50 (SR) was 0.0145 µM.
